We go through 44 compounds from PMC12751012, “Nanoscale Direct-to-Biology Optimization and Structural Insights into Selective S. aureus TrmD Inhibitors” (Journal of Medicinal Chemistry, 2025).

The target in this assay is T1, S. aureus TrmD (Staphylococcus aureus, UniProt Q2FZ43).
T1 construct: made in house; host or cells: E. coli BL21
T1 sequence (Q2FZ43 1-245): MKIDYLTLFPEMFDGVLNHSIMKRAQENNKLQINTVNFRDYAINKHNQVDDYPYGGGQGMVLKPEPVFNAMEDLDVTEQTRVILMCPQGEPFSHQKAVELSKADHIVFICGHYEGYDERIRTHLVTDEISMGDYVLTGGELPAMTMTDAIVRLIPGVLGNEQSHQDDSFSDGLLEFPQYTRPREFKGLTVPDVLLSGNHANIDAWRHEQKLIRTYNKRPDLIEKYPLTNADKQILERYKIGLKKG
Description: nanoSAR direct-to-biology FP displacement screening of crude triazoles. The following applies: crude triazole at 1 μM, assuming full conversion; 500 nM TrmD, 10 nM tracer 4; read-out: % displaced tracer. The format is binding. Summed up: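 Crude CuAAC triazoles from alkyne 7 and 320 diverse azides were screened by FP displacement of 10 nM tracer 4 from 500 nM S. aureus TrmD. Buffer was 40 mM Tris HCl, 100 mM NaCl, 10 mM MgCl2, 5% glycerol, pH 7.5.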

For `O=C(O)c1ccc(Cn2cc(-c3c[nH]c4nc[nH]c(=O)c34)nn2)cc1` [Compound 02C11, [O-]C(=O)c1ccc(cc1)CN2N=NC(C=3C=4C(=O)NC=NC4NC3)=C2], the inhibition at 1 µM was 43%.

Regarding `O=c1[nH]cnc2[nH]cc(-c3cn(Cc4ccc(F)cc4)nn3)c12` [Compound 03E04, Fc1ccc(cc1)CN2N=NC(C=3C=4C(=O)NC=NC4NC3)=C2], the inhibition at 1 µM was 85%.

As for `Cn1cc(Cn2cc(-c3c[nH]c4nc[nH]c(=O)c34)nn2)cn1` [Compound 01F04, O=C1NC=NC=2NC=C(C=3N=NN(C3)CC=4C=NN(C4)C)C12], the inhibition at 1 µM is 57%.

Consider `O=c1[nH]cnc2[nH]cc(-c3cn(Cc4cscn4)nn3)c12` [Compound 02E07, S1C=NC(=C1)CN2N=NC(C=3C=4C(=O)NC=NC4NC3)=C2], for which the inhibition at 1 µM was determined as 80%.

On to `O=c1[nH]cnc2[nH]cc(-c3cn([C@@H]4CCCc5cccnc54)nn3)c12` [Compound 02G11, O=C1NC=NC=2NC=C(C=3N=NN(C3)[C@H]4c5ncccc5CCC4)C12], for which the inhibition at 1 µM is 18%.

Consider `O=C(Cn1cc(-c2c[nH]c3nc[nH]c(=O)c23)nn1)Nc1ccccc1` [Compound 01A10, O=C1NC=NC=2NC=C(C=3N=NN(C3)CC(=O)Nc4ccccc4)C12], for which the inhibition at 1 µM stood at 41%.

Turning to `O=c1[nH]cnc2[nH]cc(-c3cn(C[C@H]4CCC[C@@]5(CCOC5)O4)nn3)c12` [Compound 01A06, O=C1NC=NC=2NC=C(C=3N=NN(C3)C[C@@H]4O[C@@]5(COCC5)CCC4)C12], the inhibition at 1 µM was 52%.

For the compound `CCOP(=O)(CCCn1cc(-c2c[nH]c3nc[nH]c(=O)c23)nn1)OCC` [Compound 01H12, P(=O)(OCC)(OCC)CCCN1N=NC(C=2C=3C(=O)NC=NC3NC2)=C1], the inhibition at 1 µM was 33%.

For the compound `Cc1ccc2nc(Cn3cc(-c4c[nH]c5nc[nH]c(=O)c45)nn3)cn2c1` [Compound 01B02, O=C1NC=NC=2NC=C(C=3N=NN(C3)CC=4N=C5N(C4)C=C(C=C5)C)C12], the inhibition at 1 µM turned out to be 57%.

For `O=c1[nH]cnc2[nH]cc(-c3cn(C4CNC4)nn3)c12` [Compound 03F12, O=C1NC=NC=2NC=C(C=3N=NN(C3)C4C[NH2+]C4)C12], the inhibition at 1 µM was determined as 42%.

As for `O=c1[nH]cnc2[nH]cc(-c3cn(CCOC4CCSCC4)nn3)c12` [Compound 01H07, S1CCC(OCCN2N=NC(C=3C=4C(=O)NC=NC4NC3)=C2)CC1], the inhibition at 1 µM was determined as 54%.

For the compound `CC(C)CCn1cc(-c2c[nH]c3nc[nH]c(=O)c23)nn1` [Compound 01A09, O=C1NC=NC=2NC=C(C=3N=NN(C3)CCC(C)C)C12], the inhibition at 1 µM was 26%.

Consider `O=c1[nH]cnc2[nH]cc(-c3cn(CC4CCCCC4)nn3)c12` [Compound 01B10, O=C1NC=NC=2NC=C(C=3N=NN(C3)CC4CCCCC4)C12], for which the inhibition at 1 µM amounted to 33%.

With `O=c1[nH]cnc2[nH]cc(-c3cn(CCCO)nn3)c12` [Compound 01G05, O=C1NC=NC=2NC=C(C=3N=NN(C3)CCCO)C12], the inhibition at 1 µM came to 32%.

For the compound `O=c1[nH]cnc2[nH]cc(-c3cn(-c4cc(F)cc(F)c4)nn3)c12` [Compound 03F09, Fc1cc(F)cc(N2N=NC(C=3C=4C(=O)NC=NC4NC3)=C2)c1], the inhibition at 1 µM was 25%.

As to `COc1ccnc(-n2cc(-c3c[nH]c4nc[nH]c(=O)c34)nn2)n1` [Compound 02A01, O=C1NC=NC=2NC=C(C=3N=NN(c4nc(OC)ccn4)C3)C12], the inhibition at 1 µM came out at 19%.

Take `COC(=O)c1csc(Cn2cc(-c3c[nH]c4nc[nH]c(=O)c34)nn2)n1` [Compound 03G08, S1C(=NC(C(=O)OC)=C1)CN2N=NC(C=3C=4C(=O)NC=NC4NC3)=C2]: the inhibition at 1 µM came to 10%.

For the compound `O=c1[nH]cnc2[nH]cc(-c3cn(-c4ccccc4-c4ccccc4)nn3)c12` [Compound 01E12, O=C1NC=NC=2NC=C(C=3N=NN(c4c(c5ccccc5)cccc4)C3)C12], the inhibition at 1 µM was 34%.

Turning to `COc1ccc(Cl)c(-n2cc(-c3c[nH]c4nc[nH]c(=O)c34)nn2)c1` [Compound 02D02, Clc1c(N2N=NC(C=3C=4C(=O)NC=NC4NC3)=C2)cc(OC)cc1], the inhibition at 1 µM is 3%.

For `O=c1[nH]cnc2[nH]cc(-c3cn([C@H](CC4CCCCC4)c4ncccn4)nn3)c12` [Compound 02G07, O=C1NC=NC=2NC=C(C=3N=NN(C3)[C@@H](c4ncccn4)CC5CCCCC5)C12], the inhibition at 1 µM worked out at 30%.

For `O=C1CC[C@@H](Cn2cc(-c3c[nH]c4nc[nH]c(=O)c34)nn2)O1` [Compound 04E02, O=C1O[C@H](CN2N=NC(C=3C=4C(=O)NC=NC4NC3)=C2)CC1], the inhibition at 1 µM stood at 22%.

Consider `C[C@@H](O)Cn1cc(-c2c[nH]c3nc[nH]c(=O)c23)nn1` [Compound 04A01, O=C1NC=NC=2NC=C(C=3N=NN(C3)C[C@H](O)C)C12], for which the inhibition at 1 µM is 15%.

As to `O=c1[nH]cnc2[nH]cc(-c3cn(Cc4cc(=O)n5nccc5[nH]4)nn3)c12` [Compound 02A09, O=C1N2N=CC=C2NC(=C1)CN3N=NC(C=4C=5C(=O)NC=NC5NC4)=C3], the inhibition at 1 µM came to 12%.

For the compound `O=c1[nH]cnc2[nH]cc(-c3cn(CCO)nn3)c12` [Compound 04B04, O=C1NC=NC=2NC=C(C=3N=NN(C3)CCO)C12], the inhibition at 1 µM stood at 63%.

As for `C[C@H]1CCCC[C@]1(C)n1cc(-c2c[nH]c3nc[nH]c(=O)c23)nn1` [Compound 04D02, O=C1NC=NC=2NC=C(C=3N=NN(C3)[C@@]4([C@H](CCCC4)C)C)C12], the inhibition at 1 µM was determined as 27%.

As for `COc1ccc(Cn2cc(-c3c[nH]c4nc[nH]c(=O)c34)nn2)cc1` [Compound 02E05, O=C1NC=NC=2NC=C(C=3N=NN(C3)Cc4ccc(OC)cc4)C12], the inhibition at 1 µM was determined as 78%.

For `O=c1[nH]cnc2[nH]cc(-c3cn(CCCN4CCSCC4)nn3)c12` [Compound 02H07, S1CC[NH+](CC1)CCCN2N=NC(C=3C=4C(=O)NC=NC4NC3)=C2], the inhibition at 1 µM came to 59%.

Take `O=c1[nH]cnc2[nH]cc(-c3cn(CCO[C@H]4CCOC4)nn3)c12` [Compound 02B12, O=C1NC=NC=2NC=C(C=3N=NN(C3)CCO[C@@H]4COCC4)C12]: the inhibition at 1 µM was 56%.

For `O=c1[nH]cnc2[nH]cc(-c3cn(C[C@@H]4CC[C@H]4C(F)(F)F)nn3)c12` [Compound 01C12, FC(F)(F)[C@H]1[C@H](CN2N=NC(C=3C=4C(=O)NC=NC4NC3)=C2)CC1], the inhibition at 1 µM is 47%.

As for `O=c1[nH]cnc2[nH]cc(-c3cn(C[C@@H]4CCCCNC4)nn3)c12` [Compound 03H08, O=C1NC=NC=2NC=C(C=3N=NN(C3)C[C@H]4C[NH2+]CCCC4)C12], the inhibition at 1 µM was 81%.

As for `Cn1ccc(-n2cc(-c3c[nH]c4nc[nH]c(=O)c34)nn2)n1` [Compound 03G05, O=C1NC=NC=2NC=C(C=3N=NN(C4=NN(C=C4)C)C3)C12], the inhibition at 1 µM is 25%.

Consider `O=c1[nH]cnc2[nH]cc(-c3cn([C@H]4COC[C@@H]4n4cccn4)nn3)c12` [Compound 04D04, O=C1NC=NC=2NC=C(C=3N=NN(C3)[C@@H]4[C@@H](N5N=CC=C5)COC4)C12], for which the inhibition at 1 µM is 51%.

For the compound `CNC(=O)CCn1cc(-c2c[nH]c3nc[nH]c(=O)c23)nn1` [Compound 02H01, O=C1NC=NC=2NC=C(C=3N=NN(C3)CCC(=O)NC)C12], the inhibition at 1 µM worked out at 21%.

Consider `Cc1ccc(-n2cc(-c3c[nH]c4nc[nH]c(=O)c34)nn2)cc1Cl` [Compound 02B03, Clc1c(ccc(N2N=NC(C=3C=4C(=O)NC=NC4NC3)=C2)c1)C], for which the inhibition at 1 µM amounted to 0.61%.

As to `COC(=O)c1cnoc1Cn1cc(-c2c[nH]c3nc[nH]c(=O)c23)nn1` [Compound 01D12, O=C(OC)C1=C(ON=C1)CN2N=NC(C=3C=4C(=O)NC=NC4NC3)=C2], the inhibition at 1 µM is 38%.

In the case of `O=c1[nH]cnc2[nH]cc(-c3cn([C@H]4CCNC4)nn3)c12` [Compound 03D07, O=C1NC=NC=2NC=C(C=3N=NN(C3)[C@@H]4C[NH2+]CC4)C12], the inhibition at 1 µM is 27%.

As to `O=c1[nH]cnc2[nH]cc(-c3cn(-c4ccc5c(c4)NCC5)nn3)c12` [Compound 03C06, O=C1NC=NC=2NC=C(C=3N=NN(c4cc5NCCc5cc4)C3)C12], the inhibition at 1 µM was 25%.

`O=c1[nH]cnc2[nH]cc(-c3cn(-c4cc(Cl)cc(Cl)c4)nn3)c12` [Compound 03E08, Clc1cc(Cl)cc(N2N=NC(C=3C=4C(=O)NC=NC4NC3)=C2)c1]: the inhibition at 1 µM was 23%.

As for `Cc1cc(C)cc(-n2cc(-c3c[nH]c4nc[nH]c(=O)c34)nn2)c1` [Compound 03B05, O=C1NC=NC=2NC=C(C=3N=NN(c4cc(cc(c4)C)C)C3)C12], the inhibition at 1 µM was found to be 24%.

On to `O=c1[nH]cnc2[nH]cc(-c3cn(CCc4c[nH]c5ccccc45)nn3)c12` [Compound 02C02, O=C1NC=NC=2NC=C(C=3N=NN(C3)CCC=4c5c(NC4)cccc5)C12], for which the inhibition at 1 µM was 56%.

For `C[C@H](c1ccc(F)cc1Cl)n1cc(-c2c[nH]c3nc[nH]c(=O)c23)nn1` [Compound 01G11, Clc1c(ccc(F)c1)[C@H](N2N=NC(C=3C=4C(=O)NC=NC4NC3)=C2)C], the inhibition at 1 µM was determined as 56%.

In the case of `O=c1[nH]cnc2[nH]cc(-c3cn([C@@H]4C[C@H]5CC[C@@H](C4)N5)nn3)c12` [Compound 01G10, O=C1NC=NC=2NC=C(C=3N=NN(C3)[C@@H]4C[C@@H]5[NH2+][C@H](C4)CC5)C12], the inhibition at 1 µM was found to be 44%.

Turning to `COc1ccc(C)cc1[C@@H](C)n1cc(-c2c[nH]c3nc[nH]c(=O)c23)nn1` [Compound 04E04, O=C1NC=NC=2NC=C(C=3N=NN(C3)[C@@H](c4c(OC)ccc(c4)C)C)C12], the inhibition at 1 µM was found to be 65%.

For the compound `O=c1[nH]cnc2[nH]cc(-c3cn(C[C@@H]4CCCC4(F)F)nn3)c12` [Compound 01F12, F[C@@]1(F)[C@H](CN2N=NC(C=3C=4C(=O)NC=NC4NC3)=C2)CCC1], the inhibition at 1 µM amounted to 79%.
